We go through 30 molecules from patent publication US20150329558A1, “FUSED HETEROCYCLIC COMPOUNDS AS ION CHANNEL MODULATORS” (Gilead Sciences, Inc., priority 2011, published 2015).

Chain of wild-type human cardiac sodium channel, hNav1.5 (late INa) (Q14524 whole entry): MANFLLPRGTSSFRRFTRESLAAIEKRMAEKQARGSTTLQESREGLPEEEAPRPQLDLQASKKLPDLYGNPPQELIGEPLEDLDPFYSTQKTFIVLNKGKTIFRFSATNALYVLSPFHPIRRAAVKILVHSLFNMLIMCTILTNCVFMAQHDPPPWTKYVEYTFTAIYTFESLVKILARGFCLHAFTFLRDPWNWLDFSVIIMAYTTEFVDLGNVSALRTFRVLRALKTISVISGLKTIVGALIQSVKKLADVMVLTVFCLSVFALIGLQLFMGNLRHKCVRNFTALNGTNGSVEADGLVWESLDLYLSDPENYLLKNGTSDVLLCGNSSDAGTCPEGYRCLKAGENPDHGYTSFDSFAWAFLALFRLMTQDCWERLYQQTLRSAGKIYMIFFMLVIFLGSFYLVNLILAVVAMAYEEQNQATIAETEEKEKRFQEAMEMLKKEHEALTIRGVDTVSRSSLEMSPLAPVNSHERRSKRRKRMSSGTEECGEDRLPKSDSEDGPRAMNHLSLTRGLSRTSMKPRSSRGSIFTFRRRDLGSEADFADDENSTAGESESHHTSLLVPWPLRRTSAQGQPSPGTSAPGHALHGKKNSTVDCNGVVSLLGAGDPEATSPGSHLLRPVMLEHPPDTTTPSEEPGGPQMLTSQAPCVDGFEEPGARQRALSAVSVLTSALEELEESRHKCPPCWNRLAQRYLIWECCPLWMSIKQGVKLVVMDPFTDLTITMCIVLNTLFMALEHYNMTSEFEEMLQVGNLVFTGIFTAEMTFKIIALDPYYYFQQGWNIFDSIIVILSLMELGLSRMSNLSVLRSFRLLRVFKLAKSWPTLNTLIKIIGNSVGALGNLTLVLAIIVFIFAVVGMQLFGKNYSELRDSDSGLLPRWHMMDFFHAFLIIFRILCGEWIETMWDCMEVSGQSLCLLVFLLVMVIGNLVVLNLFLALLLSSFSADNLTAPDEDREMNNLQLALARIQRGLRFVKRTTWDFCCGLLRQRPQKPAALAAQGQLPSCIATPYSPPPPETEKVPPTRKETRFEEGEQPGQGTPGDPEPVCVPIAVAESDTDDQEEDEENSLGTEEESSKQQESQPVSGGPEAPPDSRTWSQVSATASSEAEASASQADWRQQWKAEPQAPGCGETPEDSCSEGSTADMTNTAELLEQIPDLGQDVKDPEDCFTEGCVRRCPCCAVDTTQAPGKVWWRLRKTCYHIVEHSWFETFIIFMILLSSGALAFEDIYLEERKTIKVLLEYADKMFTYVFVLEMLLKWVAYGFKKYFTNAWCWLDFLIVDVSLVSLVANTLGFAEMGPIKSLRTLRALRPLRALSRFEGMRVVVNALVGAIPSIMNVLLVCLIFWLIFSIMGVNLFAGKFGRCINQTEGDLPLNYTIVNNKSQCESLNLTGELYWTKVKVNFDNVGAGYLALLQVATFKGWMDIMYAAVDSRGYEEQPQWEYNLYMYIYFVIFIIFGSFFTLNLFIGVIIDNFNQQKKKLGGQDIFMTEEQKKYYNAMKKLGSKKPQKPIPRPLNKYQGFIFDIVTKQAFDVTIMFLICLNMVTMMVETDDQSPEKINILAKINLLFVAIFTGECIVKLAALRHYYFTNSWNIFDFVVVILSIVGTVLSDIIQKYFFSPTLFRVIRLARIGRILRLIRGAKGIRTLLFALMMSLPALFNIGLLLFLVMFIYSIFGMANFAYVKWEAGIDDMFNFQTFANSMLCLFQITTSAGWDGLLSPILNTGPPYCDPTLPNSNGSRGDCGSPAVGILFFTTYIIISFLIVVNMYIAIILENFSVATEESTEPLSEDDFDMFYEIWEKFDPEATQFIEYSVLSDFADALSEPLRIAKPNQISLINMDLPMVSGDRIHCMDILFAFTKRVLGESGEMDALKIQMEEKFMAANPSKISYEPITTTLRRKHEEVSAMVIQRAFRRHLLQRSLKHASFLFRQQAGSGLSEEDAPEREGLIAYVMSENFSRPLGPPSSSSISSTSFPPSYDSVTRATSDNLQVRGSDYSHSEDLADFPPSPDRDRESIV

This assay deals with wild-type human cardiac sodium channel, hNav1.5 (late INa) (Homo sapiens, UniProt Q14524). The assay is described as follows: Late INa screening assay (QPatch whole cell patch clamp). The format is cell-based. The settings on record: percent block of late INa, compound at 1 μM, 10 μM Tefluthrin, HEK293 hNav1.5; read-out: Late INa 1 μM. On the procedure:
The late sodium current (Late INa) and peak sodium current (Peak INa) assays are performed on an automated electrophysiology platform, QPatch 16× (Sophion Bioscience, Copenhagen, Denmark), which uses the whole cell patch clamp technique to measure currents through the cell membrane of up to 16 cells at a time. The assay uses an HEK293 (human embryonic kidney) cell line heterologously expressing the wild-type human cardiac sodium channel, hNav1.5, purchased from Millipore (Billerica, Mass.). No beta subunits were coexpressed with the Na channel alpha subunit. Cells are maintained with standard tissue culture procedures and stable channel expression is maintained with 400 μg/mL Geneticin in the culture medium. […] Experiments are carried out at 23-25° C. For both the Late INa and Peak INa assays, series resistance compensation is set to 100% and series resistance and whole-cell compensation are performed automatically. Currents are digitized at 25 kHz and low-pass filtered at 12 kHz and 10 kHz for the late and peak INa assays, respectively. Currents through open sodium channels are automatically recorded and stored in the Sophion Bioscience Oracle database (Sophion Bioscience, Copehagen, Denmark). Analysis is performed using QPatch Assay and database software and data are compiled in Excel. Compound stocks are routinely made by the Gilead Sample Bank in plastic vials to 10 mM in dimethyl sulfoxide (DMSO). In some cases, when compounds are not soluble in DMSO, they are made in 100% ethanol. Stocks are sonicated as necessary. […] The intracellular solution used to perfuse the inside of the cells for both the Late INa and Peak INa assays contains: 120 mM CsF, 20 mM CsCl, 5 mM EGTA, 5 mM HEPES and pH adjusted to 7.4 with CsOH. Compounds are diluted in extracellular solution to 1 μM in glass vials and then transferred to glass well plates before robotic addition to the cells. […] For the Late INa assay, sodium channels are activated every 10 seconds (0.1 Hz) by depolarizing the cell membrane to −20 mV for 250 milliseconds (ms) from a holding potential of −120 mV. In response to a −20 mV voltage step, typical hNav1.5 sodium currents activate rapidly to a peak negative current and then inactivate nearly completely within 3-4 ms. All compounds were tested to determine their activity in blocking the late sodium current. Late INa was generated by adding 10 μM Tefluthrin (pyrethroid) to the extracellular solution while recording Na currents. To confirm the block of late INa observed using the automated screening method, a second late INa enhancer (ATX-II) and the manual patch clamp method were used. ATX-II and tefluthrin occupy distinct, non-overlapping binding sites and modify Na^+ channel function differently to increase late INa. […] For the purposes of the screening, late INa is defined as the mean current between 225 ms and 250 ms after stepping to −20 mV to activate Na channels. […] Results are reported as percent block of late INa.
Background: Patch clamp records ionic current or voltage across a cell membrane.
As for `Cc1nn(C)cc1C(=O)N1CCc2ccc(-c3ccc(C(F)(F)F)cc3)cc2C1` [IX-28, (1,3-dimethyl-1H-pyrazol-4-yl)(7-(4-(trifluoromethyl)phenyl)-3,4-dihydroisoquinolin-2(1H)-yl)methanone], the inhibition at 1 µM came out at 24%. In the case of `O=C(Cc1ncccn1)N1CCc2ccc(-c3ccc(C(F)(F)F)cc3)cc2C1` [IX-30, 2-(pyrimidin-2-yl)-1-(7-(4-(trifluoromethyl)phenyl)-3,4-dihydroisoquinolin-2(1H)-yl)ethanone] it was 20%; in that of `CC(C)c1nccc(C(=O)N2CCc3ccc(-c4ccc(C(F)(F)F)cc4)cc3C2)n1` [IX-31, (2-isopropylpyrimidin-4-yl)(7-(4-(trifluoromethyl)phenyl)-3,4-dihydroisoquinolin-2(1H)-yl)methanone], 25%; in that of `O=C(c1ccncn1)N1CCc2ccc(-c3ccc(C(F)(F)F)cc3)cc2C1` [IX-32, pyrimidin-4-yl(7-(4-(trifluoromethyl)phenyl)-3,4-dihydroisoquinolin-2(1H)-yl)methanone], 29%. Regarding `O=C(c1cncnc1)N1CCc2ccc(-c3ccc(C(F)(F)F)cc3)cc2C1` [IX-33, pyrimidin-5-yl(7-(4-(trifluoromethyl)phenyl)-3,4-dihydroisoquinolin-2(1H)-yl)methanone], the inhibition at 1 µM amounted to 21%.

Take `Cc1cc(C(=O)N2CCc3ccc(-c4ccc(C(F)(F)F)cc4)cc3C2)nc(N)n1` [IX-34, (2-amino-6-methylpyrimidin-4-yl)(7-(4-(trifluoromethyl)phenyl)-3,4-dihydroisoquinolin-2(1H)-yl)methanone]: the inhibition at 1 µM came out at 16%. In the case of `O=C(c1ccn[nH]1)N1CCc2ccc(-c3ccc(C(F)(F)F)cc3)cc2C1` [IX-36, (1H-pyrazol-5-yl)(7-(4-(trifluoromethyl)phenyl)-3,4-dihydroisoquinolin-2(1H)-yl)methanone], the inhibition at 1 µM was found to be 20%.

As to `O=C(NCc1ccccc1)N1CCc2ccc(-c3ccc(C(F)(F)F)cc3)cc2C1` [IX-41, N-benzyl-7-(4-(trifluoromethyl)phenyl)-3,4-dihydroisoquinoline-2(1H)-carboxamide], the inhibition at 1 µM was determined as 27%. In the case of `O=C(Nc1ccccc1)N1CCc2ccc(-c3ccc(C(F)(F)F)cc3)cc2C1` [IX-42, N-phenyl-7-(4-(trifluoromethyl)phenyl)-3,4-dihydroisoquinoline-2(1H)-carboxamide] it was 25%; in that of `O=C(NC1CC1)N1CCc2ccc(-c3ccc(C(F)(F)F)cc3)cc2C1` [IX-44, N-cyclopropyl-7-(4-(trifluoromethyl)phenyl)-3,4-dihydroisoquinoline-2(1H)-carboxamide], 27%. For `O=C(N1CCOCC1)N1CCc2ccc(-c3ccc(C(F)(F)F)cc3)cc2C1` [IX-52, morpholino(7-(4-(trifluoromethyl)phenyl)-3,4-dihydroisoquinolin-2(1H)-yl)methanone], the inhibition at 1 µM was 26%. In the case of `Cn1cncc1C(=O)N1CCc2ccc(-c3ccc(C(F)(F)F)cc3)cc2C1` [IX-56, (1-methyl-1H-imidazol-5-yl)(7-(4-(trifluoromethyl)phenyl)-3,4-dihydroisoquinolin-2(1H)-yl)methanone], the inhibition at 1 µM was found to be 28%. On to `O=C(c1[nH]cnc1F)N1CCc2ccc(-c3ccc(C(F)(F)F)cc3)cc2C1` [IX-59, (4-fluoro-1H-imidazol-5-yl)(7-(4-(trifluoromethyl)phenyl)-3,4-dihydroisoquinolin-2(1H)-yl)methanone], for which the inhibition at 1 µM stood at 17%. In the case of `O=C(NC1CCCC1)N1CCc2ccc(-c3ccc(C(F)(F)F)cc3)cc2C1` [IX-77, N-cyclopentyl-7-(4-(trifluoromethyl)phenyl)-3,4-dihydroisoquinoline-2(1H)-carboxamide], the inhibition at 1 µM amounted to 22%. Consider `O=C(N1CCC1)N1CCc2ccc(-c3ccc(C(F)(F)F)cc3)cc2C1` [IX-88, azetidin-1-yl(7-(4-(trifluoromethyl)phenyl)-3,4-dihydroisoquinolin-2(1H)-yl)methanone], for which the inhibition at 1 µM was 25%. Regarding `CC1CCN(C(=O)N2CCc3ccc(-c4ccc(C(F)(F)F)cc4)cc3C2)C1` (stereo not drawn) [IX-90, (3-methylpyrrolidin-1-yl)(7-(4-(trifluoromethyl)phenyl)-3,4-dihydroisoquinolin-2(1H)-yl)methanone], the inhibition at 1 µM is 27%. Under `O=C(N1CCc2ccc(-c3ccc(C(F)(F)F)cc3)cc2C1)N1CCC(O)C1` (stereo not drawn) [IX-91, (3-hydroxypyrrolidin-1-yl)(7-(4-(trifluoromethyl)phenyl)-3,4-dihydroisoquinolin-2(1H)-yl)methanoneo] stands 16%. In the case of `O=C(N1CCc2ccc(-c3ccc(C(F)(F)F)cc3)cc2C1)N1CC(F)(F)C1` [IX-92, (3,3-difluoroazetidin-1-yl)(7-(4-(trifluoromethyl)phenyl)-3,4-dihydroisoquinolin-2(1H)-yl)methanone] it was 17%; in that of `O=C(N1CCc2ccc(-c3ccc(C(F)(F)F)cc3)cc2C1)N1CC(Oc2cccnc2)C1` [IX-93, (3-(pyridin-3-yloxy)azetidin-1-yl)(7-(4-(trifluoromethyl)phenyl)-3,4-dihydroisoquinolin-2(1H)-yl)methanone], 15%. In the case of `O=C(N1CCc2ccc(-c3ccc(C(F)(F)F)cc3)cc2C1)N1CCC(F)C1` (stereo not drawn) [IX-94, (3-fluoropyrrolidin-1-yl)(7-(4-(trifluoromethyl)phenyl)-3,4-dihydroisoquinolin-2(1H)-yl)methanone] it was 33%; in that of `O=C(N1CCc2ccc(-c3ccc(C(F)(F)F)cc3)cc2C1)N1CC(F)C1` [IX-95, (3-fluoroazetidin-1-yl)(7-(4-(trifluoromethyl)phenyl)-3,4-dihydroisoquinolin-2(1H)-yl)methanone], 25%; in that of `Cn1cnc(S(=O)(=O)N2CCc3ccc(-c4ccc(C(F)(F)F)cc4)cc3C2)c1` [IX-98, 2-(1-methyl-1H-imidazol-4-ylsulfonyl)-7-(4-(trifluoromethyl)phenyl)-1,2,3,4-tetrahydroisoquinoline], 27%. Consider `O=C(N1CCc2ccc(-c3ccc(C(F)(F)F)cc3)cc2C1)N1CC[C@@H](CO)C1` [IX-101, (R)-(3-(hydroxymethyl)pyrrolidin-1-yl)(7-(4-(trifluoromethyl)phenyl)-3,4-dihydroisoquinolin-2(1H)-yl)methanone], for which the inhibition at 1 µM came to 15%.

For `O=C(N1CCc2ccc(-c3ccc(C(F)(F)F)cc3)cc2C1)N1CCC[C@H]1CO` [IX-102, (S)-(2-(hydroxymethyl)pyrrolidin-1-yl)(7-(4-(trifluoromethyl)phenyl)-3,4-dihydroisoquinolin-2(1H)-yl)methanone], the inhibition at 1 µM is 27%. For `CS(=O)(=O)C1CN(C(=O)N2CCc3ccc(-c4ccc(C(F)(F)F)cc4)cc3C2)C1` [IX-104, (3-(methylsulfonyl)azetidin-1-yl)(7-(4-(trifluoromethyl)phenyl)-3,4-dihydroisoquinolin-2(1H)-yl)methanone], the inhibition at 1 µM came to 20%. Turning to `C[C@@H]1CC[C@H](C)N1C(=O)N1CCc2ccc(-c3ccc(C(F)(F)F)cc3)cc2C1` [IX-106], the inhibition at 1 µM is 21%. Regarding `CC1CN(C(=O)N2CCc3ccc(-c4ccc(C(F)(F)F)cc4)cc3C2)C1` [IX-107, (3-methylazetidin-1-yl)(7-(4-(trifluoromethyl)phenyl)-3,4-dihydroisoquinolin-2(1H)-yl)methanone], the inhibition at 1 µM worked out at 24%.

For the molecule `Nc1n[nH]c(C(=O)N2CCc3ccc(-c4ccc(C(F)(F)F)cc4)cc3C2)n1` [IX-111, (3-amino-1H-1,2,4-triazol-5-yl)(7-(4-(trifluoromethyl)phenyl)-3,4-dihydroisoquinolin-2(1H)-yl)methanone], the inhibition at 1 µM came to 27%.

Regarding `CC1(O)CN(C(=O)N2CCc3ccc(-c4ccc(C(F)(F)F)cc4)cc3C2)C1` [IX-112, (3-hydroxy-3-methylazetidin-1-yl)(7-(4-(trifluoromethyl)phenyl)-3,4-dihydroisoquinolin-2(1H)-yl)methanone], the inhibition at 1 µM came out at 18%. In the case of `O=C(N1CCc2ccc(-c3ccc(C(F)(F)F)cc3)cc2C1)N1CC(CO)C1` [IX-113, (3-(hydroxymethyl)azetidin-1-yl)(7-(4-(trifluoromethyl)phenyl)-3,4-dihydroisoquinolin-2(1H)-yl)methanone] it was 17%.
